Laboratory results reported in US20240041042A1, “1-(PYRIDYL)-5-AZINYLPYRAZOLE DERIVATIVES, AND THEIR USE FOR CONTROL OF UNDESIRED PLANT GROWTH” (Bayer Aktiengesellschaft, priority 2020, published 2024).
Like-named read-outs stand apart in the source and are kept apart here.

Experiments:
Type in all cases: in vivo
[1] = system: Polygonum convolvulus (POLCO); assay: Post-emergence herbicidal action against POLCO; settings: dosage 320 g/ha
Summary of the method: (§1)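 Post-emergence greenhouse spray, one-leaf stage, 600 l/ha water plus 0.5% additive; WP or EC formulations; application rates 320 g/ha or lower. Visual % damage vs untreated controls at ~3 weeks.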

[2] = system: Alopecurus myosuroides (ALOMY); assay: Pre-emergence herbicidal action against ALOMY; settings: scored visually after about 3 weeks, 100% = plants have died
Summary of the method: (§2)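 Pre-emergence soil-surface spray, WP/EC formulation, 0.5% additive, 600 l/ha water, rates of 320 g/ha or lower. Greenhouse, ~3 wk. Visual score, % of untreated control (100% = plants dead, 0% = like control).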

Glycine max (GLXMA) = settings: pre-emergence, 80 g/ha, crop plant compatibility, in comparison to untreated controls
Summary of the method: (§3)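 Crop injury rated visually in percent against untreated plants roughly 3 weeks after treatment (0% no effect, 100% plants dead). Compounds, as WP or EC with 0.5% additive in 600 l/ha water, were applied to the covering soil right after sowing; greenhouse growth. Suffixes a, b, c denote different dosages.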

[3] = system: Digitaria sanguinalis (DIGSA); assay: Pre-emergence herbicidal action against DIGSA
Summary of the method: as §2

Lolium rigidum (LOLRI) [4] = assay: Pre-emergence herbicidal action against LOLRI
Summary of the method: as §2

Viola tricolor (VIOTR) [5] = assay: Pre-emergence herbicidal action against VIOTR
Summary of the method: as §2

[6] = system: Amaranthus retroflexus (AMARE); assay: Pre-emergence herbicidal action against AMARE; settings: visual scoring after about 3 weeks vs untreated controls
Summary of the method: as §2

Viola tricolor (VIOTR) [7] = assay: Post-emergence herbicidal action against VIOTR; settings: 320 g/ha
Summary of the method: as §1

[8] = system: Alopecurus myosuroides (ALOMY); assay: Post-emergence herbicidal action against ALOMY; settings: visual rating about 3 weeks after treatment vs untreated controls (100% = plants have died, 0% = like control plants)
Summary of the method: as §1

Oryza sativa (ORYSA) = settings: crop plant compatibility
Summary of the method: (§4)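 Effects were read visually as % versus untreated controls (0% = no effect, 100% = death) about 3 weeks post-treatment. Application was a post-emergence spray at the one-leaf stage of WP/EC formulations with 0.5% additive at 600 l/ha. Different dosages are denoted a, b and c.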

Zea mays (ZEAMX) = settings: crop plant compatibility, effect vs untreated controls
Summary of the method: as §4

Lolium rigidum (LOLRI) [9] = assay: Post-emergence herbicidal action against LOLRI; settings: dosage 320 g/ha
Summary of the method: as §1

[10] = system: Polygonum convolvulus (POLCO); assay: Pre-emergence herbicidal action against POLCO
Summary of the method: as §2

[11] = system: Pharbitis purpurea (PHBPU); assay: Pre-emergence herbicidal action against PHBPU; settings: dosage 320 g/ha
Summary of the method: as §2

[12] = system: Triticum aestivum (TRZAS); settings: 20 g/ha; crop plant compatibility, effect vs untreated controls
Summary of the method: as §3

Brassica napus (BRSNW) = settings: 20 g/ha, crop plant compatibility, in comparison to untreated controls
Summary of the method: as §3

[13] = system: Matricaria inodora (MATIN); assay: Post-emergence herbicidal action against MATIN
Summary of the method: as §1

[14] = system: Echinochloa crus-galli (ECHCG); assay: Pre-emergence herbicidal action against ECHCG; settings: dosage 320 g/ha
Summary of the method: as §2

[15] = system: Digitaria sanguinalis (DIGSA); assay: Post-emergence herbicidal action against DIGSA; settings: visual rating about 3 weeks after treatment
Summary of the method: as §1

[16] = system: Verconica persica (VERPE); assay: Pre-emergence herbicidal action against VERPE; settings: dosage 320 g/ha
Summary of the method: as §2

[17] = system: Verconica persica (VERPE); assay: Post-emergence herbicidal action against VERPE
Summary of the method: as §1

[18] = system: Pharbitis purpurea (PHBPU); assay: Post-emergence herbicidal action against PHBPU; settings: dosage 320 g/ha
Summary of the method: as §1

[19] = system: Abutilon theophrasti (ABUTH); assay: Pre-emergence herbicidal action against ABUTH; settings: Dosage column 320 g/ha (title prints 3200 g/ha); scored visually after about 3 weeks; 100% = plants have died
Summary of the method: as §2

Setaria viridis (SETVI) [20] = assay: Post-emergence herbicidal action against SETVI
Summary of the method: as §1

Avena fatua (AVEFA) = assay: Pre-emergence herbicidal action against AVEFA; settings: visual scoring after about 3 weeks vs untreated controls
Summary of the method: as §2

[21] = system: Matricaria inodora (MATIN); assay: Pre-emergence herbicidal action against MATIN
Summary of the method: as §2

Setaria viridis (SETVI) [22] = assay: Pre-emergence herbicidal action against SETVI
Summary of the method: as §2

[23] = 80 g/ha, effect in comparison to untreated controls

C[C@@H](Oc1nn(-c2ccccn2)c(-c2ccc(Cl)nc2)c1Br)C(=O)O [Example I-240]
Post-emergence action against POLCO in % [1]: 80%
Pre-emergence action against ALOMY ([2]; 320 g/ha): 90%
Pre-emergence action against GLXMA in % (Glycine max (GLXMA)): 20%
Pre-emergence action against DIGSA in % ([3]; dosage 320 g/ha): 90%
Pre-emergence action against LOLRI in % (Lolium rigidum (LOLRI) [4]; dosage 320 g/ha): 90%
Pre-emergence action against VIOTR in % (Viola tricolor (VIOTR) [5]; 320 g/ha, Viola tricolor): 90%
Pre-emergence action against AMARE in % ([6]; 320 g/ha): 90%
Post-emergence action against VIOTR in % (Viola tricolor (VIOTR) [7]): 80%
Post-emergence action against ALOMY in % ([8]; 320 g/ha): 80%
Post-emergence action against ORYSA in % (Oryza sativa (ORYSA); [23]): 0%
Post-emergence action against ORYSA in % (Oryza sativa (ORYSA); 320 g/ha, effect in comparison to untreated controls): 0%
Post-emergence action against ZEAMX in % (Zea mays (ZEAMX); 80 g/ha): 10%
Post-emergence action against ZEAMX in % (Zea mays (ZEAMX); 320 g/ha): 20%
Post-emergence action against LOLRI in % (Lolium rigidum (LOLRI) [9]): 80%

COC(=O)[C@@H](C)Oc1nn(-c2ncccc2F)c(-c2cncc(F)c2)c1Br [Example I-15]
Pre-emergence action against POLCO in % ([10]; dosage 80 g/ha): 90%
Pre-emergence action against POLCO in % ([10]; dosage 320 g/ha): 100%
Pre-emergence action against PHBPU in % [11]: 80%
Pre-emergence action against ALOMY ([2]; 80 g/ha): 100%
Pre-emergence action against ALOMY ([2]; 320 g/ha): 100%
Pre-emergence action against TRZAS [12]: 10%
Pre-emergence action against BRSNW in % (Brassica napus (BRSNW)): 10%
Pre-emergence action against DIGSA in % ([3]; 80 g/ha, visual scoring after about 3 weeks vs untreated controls): 100%
Pre-emergence action against DIGSA in % ([3]; dosage 320 g/ha): 100%
Post-emergence action against MATIN in % ([13]; dosage 80 g/ha): 80%
Post-emergence action against MATIN in % ([13]; dosage 320 g/ha): 90%
Pre-emergence action against ECHCG in % [14]: 90%
Pre-emergence action against LOLRI in % (Lolium rigidum (LOLRI) [4]; dosage 80 g/ha): 90%
Pre-emergence action against LOLRI in % (Lolium rigidum (LOLRI) [4]; dosage 320 g/ha): 100%
Pre-emergence action against VIOTR in % (Viola tricolor (VIOTR) [5]; 320 g/ha, Viola tricolor): 100%
Pre-emergence action against VIOTR in % (Viola tricolor (VIOTR) [5]; dosage 80 g/ha): 100%
Post-emergence action against DIGSA in % ([15]; 80 g/ha): 90%
Post-emergence action against DIGSA in % ([15]; 320 g/ha): 90%
Pre-emergence action against VERPE in % [16]: 100%
Pre-emergence action against AMARE in % ([6]; 80 g/ha): 100%
Pre-emergence action against AMARE in % ([6]; 320 g/ha): 100%
Post-emergence action against VERPE in % ([17]; 320 g/ha, VERPE): 80%
Post-emergence action against VERPE in % ([17]; dosage 80 g/ha): 80%
Post-emergence action against VIOTR in % (Viola tricolor (VIOTR) [7]): 80%
Post-emergence action against ALOMY in % ([8]; 80 g/ha): 90%
Post-emergence action against ALOMY in % ([8]; 320 g/ha): 90%
Post-emergence action against PHBPU in % [18]: 90%
Pre-emergence action against ABUTH [19]: 90%
Post-emergence action against ORYSA in % (Oryza sativa (ORYSA); 20 g/ha, effect vs untreated controls): 0%
Post-emergence action against ORYSA in % (Oryza sativa (ORYSA); [23]): 10%
Post-emergence action against SETVI in % (Setaria viridis (SETVI) [20]; dosage 80 g/ha): 80%
Post-emergence action against SETVI in % (Setaria viridis (SETVI) [20]; dosage 320 g/ha): 90%
Pre-emergence action against AVEFA in % (Avena fatua (AVEFA); 80 g/ha): 80%
Pre-emergence action against AVEFA in % (Avena fatua (AVEFA); 320 g/ha): 100%
Pre-emergence action against MATIN in % ([21]; dosage 80 g/ha): 100%
Pre-emergence action against MATIN in % ([21]; dosage 320 g/ha): 100%
Pre-emergence action against SETVI in % (Setaria viridis (SETVI) [22]; dosage 80 g/ha): 100%
Pre-emergence action against SETVI in % (Setaria viridis (SETVI) [22]; dosage 320 g/ha): 100%
Post-emergence action against LOLRI in % (Lolium rigidum (LOLRI) [9]): 80%
